A word on the IC50: it is the concentration needed to halve the response being measured.

Values after ≈ are worked out from the molar mass of the structure shown. Inconclusive results are not listed. Active and inactive are the calls of the source. No rule for the calls is given here.

The experiment relates to M. tuberculosis H37Rv growth inhibition. The experiment in a line: Confirmatory growth inhibition assay against Mycobacterium tuberculosis H37Rv, potency (AID 1949).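 Also: bacteria grown 7 days with compound before Alamar blue readout.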

For `CCOC(=O)c1ccc(NC(=O)CSc2nnc(-c3ccco3)c(-c3ccco3)n2)cc1`, the IC50 was 19.7 µg/mL (≈ 43.6 µM).
As for `Cc1cccc(NC(=S)NCCN2CCN(c3ccc(F)c(Cl)c3)CC2)c1C`, the IC50 is 2.79 µg/mL (≈ 6.63 µM).
The result for `COc1cc(CNc2ccc(F)c(Cl)c2)ccc1OCC(=O)NC1CCCCC1` reads 5.53 µg/mL (≈ 13.1 µM); that for `Clc1ccc(OCCCCn2ccnc2)cc1Cl`, 2.01 µg/mL (≈ 7.05 µM).
Regarding `Cc1ccc(C)c(OCC(=O)Nc2ccc(C(=O)OC(C)C)cc2)c1C`, the IC50 was 3.77 µg/mL (≈ 10.6 µM).
The result for `COc1ccc(-n2nc3ccc(NC(=O)c4ncn[nH]4)cc3n2)cc1Cl` reads > 50 µg/mL (inactive); that for `COc1cccc(NC(=O)Nc2ccc(C(F)(F)F)cc2)c1`, 5.23 µg/mL (≈ 16.9 µM); that for `O=C(NC(=S)N1CCc2ccccc21)c1ccccc1`, 1.45 µg/mL (≈ 5.14 µM).
In the case of `CCc1c(C)sc(NC(=S)N2CCN(CC)CC2)c1C(=O)OC` it was 16.3 µg/mL (≈ 45.8 µM); in that of `Clc1ccc(-c2csc(-c3cccnc3)n2)cc1`, 5.82 µg/mL (≈ 21.3 µM).
Regarding `N#Cc1ccc(-c2ccc(OCC(=O)Nc3cccnc3)cc2)cc1`, the IC50 was less than 0.1 µg/mL.
In the case of `CCCCOC(=O)c1cccc(NC(=O)c2cccc(Cl)c2)c1` it was 4.03 µg/mL (≈ 12.1 µM); in that of `COc1cc([N+](=O)[O-])ccc1NC(=O)c1cc(Cl)ccc1O`, 0.12 µg/mL (≈ 0.372 µM); in that of `O=C(COc1cccc2ccccc12)c1ccc(F)cc1`, 2.82 µg/mL (≈ 10.1 µM).
In the case of `O=C(CC12CC3CC(CC(C3)C1)C2)Nc1ccc(F)c(Cl)c1`, the IC50 was 3.02 µg/mL (≈ 9.38 µM).
`COc1cc(C(=O)Oc2ccc(Cl)c3cccnc23)cc(OC)c1OC`: the concentration for half-maximal inhibition (IC50) was 11.3 µg/mL (≈ 30.2 µM).
As for `COc1cccc(Nc2nc(-c3ccccn3)cs2)c1`, the IC50 was 0.17 µg/mL (≈ 0.6 µM).
The result for `C#CCSc1nnc(-c2ccc([N+](=O)[O-])cc2)o1` reads less than 0.1 µg/mL; that for `CN1CCN(c2ccc(NC(=O)c3ccc(Cl)c(Cl)c3)cc2)CC1`, > 50 µg/mL (inactive); that for `Cc1cc(C)nc(Nc2ccc(N3CCCC3)cc2)n1`, 9.69 µg/mL (≈ 36.1 µM).
The result for `CCCn1nnc(NC(=O)COc2ccc(C3CCCCC3)cc2)n1` reads 0.64 µg/mL (≈ 1.86 µM).
With `O=S1(=O)C=C(Sc2nc3ccccc3s2)c2ccccc21`, the IC50 was less than 0.1 µg/mL.
Turning to `CC1CCN(c2ccc(NC(=O)c3ccc([N+](=O)[O-])o3)cc2)CC1`, the IC50 was 0.31 µg/mL (≈ 0.941 µM).
The result for `COc1ccc(OCC(=O)NNC(=S)NC(=O)C(C)(C)C)cc1` reads 0.13 µg/mL (≈ 0.383 µM); that for `COC(=O)C1=C(C)NC2=C(C(=O)CC(c3ccc(F)cc3)C2)C1c1ccccc1Cl` (stereo unspecified), 3.64 µg/mL (≈ 8.55 µM); that for `CCS(=O)(=O)c1nnnn1-c1ccccc1F`, > 50 µg/mL (inactive).
In the case of `Cc1ccc(CSCC(=O)Nc2ccc(Cl)c(Cl)c2)cc1` it was 3.06 µg/mL (≈ 8.99 µM).
The result for `Cc1cc(C(C)(C)C)ccc1OCCOCCn1ccnc1` reads 2.93 µg/mL (≈ 9.69 µM); that for `Cc1cc(OCCCn2ccnc2)ccc1C(C)C`, 4.44 µg/mL (≈ 17.2 µM).
With `O=C(NC1CCCCC1)c1cc2cc(Cl)cc(Cl)c2oc1=O`, the IC50 is > 50 µg/mL (inactive).
Turning to `COc1ccc(NC(=O)c2ccccc2Oc2ccccc2)c(OC)c1`, the IC50 was less than 0.1 µg/mL.
`CCCn1c(CNc2ccccc2O)nc2ccccc21`: the IC50 was 0.34 µg/mL (≈ 1.21 µM).
In the case of `CCCc1cc(C(N)=O)c(NC(=O)c2ccoc2C)s1` it was 4.4 µg/mL (≈ 15 µM); in that of `CCOc1cc(CNCCO)cc(Br)c1OCc1ccc(Cl)cc1Cl`, 1.54 µg/mL (≈ 3.43 µM).
Consider `Cc1ccc(-c2nnc(SCC(=O)Nc3ccc([N+](=O)[O-])cc3)o2)cc1`, for which the IC50 was > 50 µg/mL (inactive).
In the case of `CC(=O)N1CCN(c2ccc(NC(=S)NC(=O)c3cc4ccccc4o3)cc2)CC1` it was 2.74 µg/mL (≈ 6.49 µM); in that of `CC(C)(C)c1ccc(C(=O)NC(=S)Nc2cccc(C#N)c2)cc1`, > 50 µg/mL (inactive).
The result for `CCCCNCCOc1ccc(Cl)cc1C(C)(C)C` reads 12.8 µg/mL (≈ 45 µM); that for `CC12CCC(C(=O)Nc3ccc(OC(F)(F)F)cc3)(CC1=O)C2(C)C` (stereo unspecified), 3.09 µg/mL (≈ 8.7 µM).
The result for `N#Cc1ccc(NC(=O)Nc2cccc(Cl)c2)cc1` reads 4.6 µg/mL (≈ 16.9 µM).
As to `CC(NC(=O)c1ccc(Br)cc1)c1ccc2c(c1)OCCO2` (stereo unspecified), the IC50 is 5.81 µg/mL (≈ 16 µM).
In the case of `COc1ccccc1C(=O)NNC(=S)NC(=O)c1cccs1` it was 0.15 µg/mL (≈ 0.447 µM).
The result for `CC(C)c1ccc(NC(=S)NC(=O)c2ccccc2F)cc1` reads 2.56 µg/mL (≈ 8.09 µM); that for `Cc1cc(Br)cc2c1N(CCCOc1ccccc1)C(=O)C2=O`, 9.2 µg/mL (≈ 24.6 µM).
In the case of `N#C/C(=C/c1ccc([N+](=O)[O-])o1)c1ccc(C#N)cc1` it was 2.96 µg/mL (≈ 11.2 µM).
Regarding `CCCc1cc2c(=O)c(-c3ccc4c(c3)OCCCO4)coc2cc1OCC(=O)OCC`, the IC50 was 0.3 µg/mL (≈ 0.684 µM).
In the case of `O=c1oc(-c2ccccc2)cc(Cl)c1Cl` it was 2.04 µg/mL (≈ 8.46 µM); in that of `Cc1ccc2nsnc2c1S(=O)(=O)Nc1cccc2cccnc12`, 0.31 µg/mL (≈ 0.87 µM).
Turning to `CCCOc1ccc(C2Oc3ccc(Br)cc3C=C2[N+](=O)[O-])cc1OC` (stereo unspecified), the IC50 is 1.48 µg/mL (≈ 3.52 µM).
In the case of `Cc1ccc(C(C)C)cc1OCCCCn1ccnc1` it was 1.88 µg/mL (≈ 6.9 µM); in that of `O=C(Nc1cccc(C(F)(F)F)c1)c1ccc(Cn2cc(Cl)cn2)cc1`, 5.67 µg/mL (≈ 14.9 µM).

Source of the values: PubChem BioAssay AID1949 (Southern Research Institute, 2009).
